Results reported in patent US20080160099A1, “Methods For Treating or Preventing a Vascular Disease” (THE TRUSTEES OF COLUMBIA UNIVERSITY IN THE CITY OF NEW YORK, priority 2004, published 2008).

Assays:
Type in all cases: biochemical
[1] = molecular target: T1, MMP-2 (Homo sapiens, UniProt P08253); assay: MMP-2 activity in lysates of fibroblasts cultured from AAA specimens, gelatin zymography with densitometry; settings: for MMP-2 inhibitory ability (in words): aneurysmal fibroblast MMP-2; for MMP-2 Inhibitory Activity: relative, aneurysmal fibroblast lysates, 1 hour incubation on ice
T1 construct: endogenous in cells; host or cells: fibroblasts cultured from AAA (abdominal aortic aneurysm) specimens
T1 sequence (P08253 110-660): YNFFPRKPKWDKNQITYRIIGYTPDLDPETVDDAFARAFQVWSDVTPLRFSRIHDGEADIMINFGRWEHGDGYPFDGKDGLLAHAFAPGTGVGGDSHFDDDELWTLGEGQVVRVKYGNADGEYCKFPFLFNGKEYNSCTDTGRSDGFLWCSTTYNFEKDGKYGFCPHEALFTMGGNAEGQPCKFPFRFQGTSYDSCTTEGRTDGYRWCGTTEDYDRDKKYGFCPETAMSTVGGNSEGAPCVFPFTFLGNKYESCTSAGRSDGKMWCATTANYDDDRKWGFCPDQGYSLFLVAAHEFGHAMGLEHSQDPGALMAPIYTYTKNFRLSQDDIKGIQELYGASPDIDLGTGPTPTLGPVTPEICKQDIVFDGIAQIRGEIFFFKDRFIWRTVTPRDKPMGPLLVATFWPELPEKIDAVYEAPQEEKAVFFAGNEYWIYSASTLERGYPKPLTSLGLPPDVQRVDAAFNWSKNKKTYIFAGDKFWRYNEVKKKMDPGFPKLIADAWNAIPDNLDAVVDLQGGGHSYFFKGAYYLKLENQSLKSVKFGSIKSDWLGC
Description: Properties of different test compounds against MMP-2 activity of aneurysmal fibroblast origin were examined on 10% polyacrylamide gels containing 1.0 mg/mL of gelatin. Fibroblasts cultured from AAA specimens were lysed using the CellLytic-M lysis/extraction reagent. The protein concentration of each supernatant was determined using the Bradford method using bovine serum albumin as a standard. The aortic fibroblast lysates were incubated alone (control) or with an illustrative Compound or Extract of the Invention at various concentrations for 1 hour on ice. After test compound incubation, equivalent amounts of proteins (30 μg) were mixed with an equal volume of sample buffer (2% SDS, 125 mM Tris-HCL, pH 6.8, 10% glycerol and 0.001% bromophenol blue) and the resulting mixture was subjected to electrophoresis in Trir-glycine el. buffer (25 mMTris pH 8.3, 250 mM Glycine, 0.1% SDS) under denatured but non-reduced conditions. After completion of electrophoresis, the gels were incubated in 2% Triton X-100 for 30 min at room temperature to ensure complete removal of SDS. The gels were then incubated at 37° C. overnight in development buffer (0.005M Tris-HCl (pH 7.5), 0.2MNaCl, 0.005MCaCl2, and 0.02% Brij-35) (Bio-Rad). Gels were stained with 0.05% Coomassie blue R250 (Bio-Rad) for 30 min and destained twice in a mixture of 40% methanol and 10% acetic acid for 20 min. Enzyme activity was detected as unstained bands on a blue background. Quantity One (Bio-Rad Version 4.3.1) was used as a densitometer to quantitate test compound inhibitory ability.

[2] = tested on: C3a; assay: Complement factor C3a levels in normal human serum, with or without HAGG; settings: alone and with HAGG, 30 minutes at 37° C.
Description: (§1) An experiment to measure the complement factors C3a and C5a was carried out at […] for 30 minutes using heat-aggregated gamma globulin (HAGG, at 14 mg/mL), a complement activator with known activity, as a positive control.
(§2) Four separate mixtures were prepared by mixing 8 parts of normal human serum with: (1) 2 parts saline, (2) 1 part saline and 1 part HAGG, (3) 1 part saline and 1 part fucosylated chondroitin sulfate (FCS), or (4) 1 part HAGG and 1 part FCS. These four mixtures were then incubated for 30 minutes at 37° C. and the complement was examined by assaying for levels of C3a and C5a.

[3] = tested on: C5a; assay: Complement factor C5a levels in normal human serum, with or without HAGG; settings: alone and with HAGG, 30 minutes at 37° C.
Description: as §1, §2

[4] = tested on: total complement; assay: Total complement activity (CH50) in human serum; settings: 30 minutes at 37° C.
Description: Blood was collected from a healthy human donor and allowed to clot at room temperature for 60 minutes. The serum was separated from the clotted blood and transferred to a clean tube. Fucosylated chondroitin sulfate (FCS) was incubated in concentrations of 0.1 mg/mL, 0.4 mg/mL and 1 mg/mL for 30 minutes at 37° C. and the complement was examined by assaying total complement activity (CH50). Complement inhibition was about 40% at a FCS concentration of 0.1 mg/mL, about 83% at a concentration of 0.4 mg/mL and complete at a concentration of 1.0 mg/mL.

CCC(C)CCCCCCCCCCC(=O)O (centres unmarked) [12-methyltetradecanoic acid]
MMP-2 inhibitory ability (in words) [1]: inhibit aneurysmal fibroblast MMP-2 activity | MMP-2 Inhibitory Activity [1]: +

Oc1cc(O)c2c(c1)O[C@H](c1cc(O)c(O)c(O)c1)[C@H](O)C2 [(−)-epigallocatechin]
MMP-2 inhibitory ability (in words) [1]: inhibit aneurysmal fibroblast MMP-2 activity | MMP-2 Inhibitory Activity [1]: +

fucosylated chondroitin sulfate
inhibitory activity toward C3a [2]: strong inhibitory activity | inhibitory activity toward C5a [3]: strong inhibitory activity | Complement inhibition (CH50) ([4]; 0.1 mg/mL): about 40% | Complement inhibition (CH50) ([4]; 0.4 mg/mL): about 83% | Complement inhibition (CH50) ([4]; 1.0 mg/mL): complete | MMP-2 inhibitory ability (in words) [1]: inhibit aneurysmal fibroblast MMP-2 activity | MMP-2 Inhibitory Activity [1]: +++
